Values joined by “and” are separate entries in the source; they are usually repeats but may differ in a detail not shown here. Equal entries are not always repeated.
How the values were obtained:
[1] = test system: D4585 (Arabidopsis thaliana BIO3-BIO1 P421L) containing tobacco plants; assay: Visual herbicide damage score on transgenic tobacco D4585 (pCMP AtBioDA P421L); format: in vivo; details: 600 gai/ha; 21 DAT; one D4585 transgenic plant
From the text: (§1) Populations of transgenic tobacco comprising 20-30 transgenic events per plant transformation constructs were generated as described in Example 1. These lines were clonally propagated and 1 clone per event was sprayed with 600 g ai/ha compound L or A+0.2% Genapol X080 with a spray volume of 200 L/Ha (“g ai/ha” refers to grams of active compound per hectare).
(§2) Herbicidal damage was visually assessed across the population and a herbicide damage score given at 7, 14 and 21 days. A score of 0 indicates no visible damage or stunting whereas a score of 100 indicates a complete death of the plant. 20 transgenic events (i.e. individual transgenic plants) from each GM tobacco line were transplanted to soil 1 week prior to spraying with BIO3-BIO1inhibiting compounds. WT tobacco was included as a control.
(§3) To determine if overexpression of variants detailed in Example 7 confer resistance to BIO3-BIO1 inhibiting compounds when expressed in plants, GM tobacco lines were produced using the methods in Example 1 and tested with BIO3-BIO1 inhibiting compounds.
(§4) Transgenic tobacco plants expressing the Arabidopsis thaliana BIO3-BIO1 variants C388D (SEQ ID NO:26), P421L(SEQ ID NO:41), F348C (SEQ ID NO:28), G700S (SEQ ID NO:39), W392S (SEQ ID NO:70) and the Zea mays BIO3-BIO1 variant C372D (SEQ ID NO:324). Populations of transgenic tobacco were sprayed and assessed as in Example 2

[2] = test system: D4596 (Arabidopsis thaliana BIO3-BIO1 F348C) containing tobacco plants; assay: Visual herbicide damage score on transgenic tobacco D4596 (pCMP AtBioDA F348C); format: in vivo; details: 600 gai/ha; 7 DAT; each table row is one D4596 transgenic plant
From the text: as §1, §2, §3, §4

[3] = test system: Cryptosporidium andersoni BioA; assay: BioA enzyme activity with DMSO or herbicide in vitro; format: biochemical; details: 0.5 μM, spermidine in substrate mix
From the text: A pet-24 plasmid containing a DNA sequence encoding each identified variant mutant of BIO3-BIO1 derived from Arabidopsis thaliana from example 5 above, as shown in Table 13 below and as shown in full in SEQ ID NOs: 15 to 155, codon-optimised for expression in E. coli, with an N-terminal 6×His-tag and thrombin cleavage site and under control of a T7 promoter, and was synthesised by Twist Bioscience, in a similar manner to SEQ ID NO:311. These plasmids were then expressed in E. coli BL21 (DE3) bioA with 50 μg/mL kanamycin and 25 μg/mL chloramphenicol selection. Overnight cultures grown at 37° C. were used to inoculate 8×500 mL AIM in shake flasks at a ratio of 1:100. Cultures were grown at 37° C., 200 rpm for 3.5 hours and then overnight at 20° C. Cells were harvested by centrifugation for 30 minutes at 10 000 g. Cells were stored at −80° C. until extraction. 30 g of cell pellet from was thawed in 120 mL of IMAC buffer A (20 mM HEPES pH7.5, 25 mM imidazole, 500 mM sodium chloride, 0.15 mM pyridoxal phosphate, 0.5 mM TCEP, 1× complete Protease Inhibitor Tablet (Roche)). The resuspension was passed through a cell disrupter at 18 000 PSI and centrifuged at 50 000 g for 25 minutes at 4° C. The His-tagged BIO3-BIO1 protein was purified from the extract supernatant on an AKTA avant chromatography system (Cytiva) using a HisTrap FF column and eluted in IMAC buffer B ((20 mM HEPES pH7.5, 500 mM imidazole, 500 mM sodium chloride, 0.15 mM pyridoxal phosphate, 0.5 mM TCEP) followed by SEC using a HiLoad 26/60 Superdex200 column in SEC buffer (25 mM HEPES pH7.5, 150 mM sodium chloride, 0.15 mM pyridoxal phosphate, 0.5 mM TCEP). Protein concentration was measured and calculated using the absorbance at 280 nm. Extracts were diluted 1 in 4 and 10 uL was analysed by SDS PAGE.
To measure BIO3-BIO1 mutant enzyme activity in the presence of herbicide, herbicides were incubated with 20 μL of enzyme mix (100 mM EPPS pH 8.6, 0.1 mM pyridoxal phosphate, 0.1 mg/mL BSA, 50 nM BIO3-BIO1 enzyme) for 10 minutes at 20° C. in a well of a 96-well half-area black plate, followed by the addition of 20 μL of substrate mix (final concentration of 100 mM EPPS pH 8.6, 0.1 mM pyridoxal phosphate, 0.1 mg/mL BSA, 100 μM spermidine, 20 μM KAPA, 100 mM NaCO3) and further incubation for 75 minutes at 20° C. The reaction was terminated by the addition of 50 μL of derivatisation mix (final concentration of 250 mM borate NaOH pH 9.4, 3.6 mM o-phthalaldehyde, 7 mM β-mercaptoethanol, 17% (v/v) ethanol, 3.6% (v/v) methanol). The fluorescent product produced by the reaction of DAPA with o-phthalaldehyde and 7 mM β-mercaptoethanol was measured at 470 nm after excitation at 410 nm. The percentage inhibition was calculated as the activity in the presence of one of three concentrations of each herbicide compound A to M (note that the compounds labelled as A to M are identified hereinabove in the relevant section of the description) as a percentage of the activity in DMSO (Table 12 and 13). The percentage activity versus WT was also calculated and is shown in Table 13 and 14 (NT indicates mutation not tested in table 13, note that these mutations are tested at different compound concentrations for compounds L, M and C, and the results are shown in table 14).
Protein of Escherichia coli BioA (SEQ ID NO:159), Pantoea ananatis BioA (SEQ ID NO:167), Streptomyces viridochromogenes BioA (SEQ ID NO:170), Cryptosporidium andersoni BioA (SEQ ID NO:160), Stenotrophomonas maltophilia BioA (SEQ ID NO:171), Chroococcidiopsis BioA (SEQ ID NO:184), Pedobacter hartonius BioA (SEQ ID NO:181), Chitinophaga filiformis BioA (SEQ ID NO:180), Tenacibaculum adriaticum BioA (SEQ ID NO:185) and Bacillus subtilis BioA (SEQ ID NO:166) was prepared using the method in Example 6. BioA enzyme activity in the presence of herbicide or DMSO in vitro for each of the proteins was assayed according to the enzyme assay method in Example 6, except in some reactions spermidine was replaced with 2 mM S-Adenosyl methionine.

Compound: CCOC(=O)c1nn(-c2ccc3c(c2)OC(F)(F)C(F)(F)O3)c2cccc(C(C)=O)c2c1=O [Compound A, ethyl 5-acetyl-4-oxo-1-(2,2,3,3-tetrafluoro-1,4-benzodioxin-6-yl)cinnoline-3-carboxylate]
- percentage of damage [1]: 5% and 0% and 2%
- percentage of damage [2]: 0% and 3%

Compound: CCn1c(Cn2ccc(C(F)(F)F)n2)cc(=O)c(C(=O)O)c1-c1ccc(Cl)c(Cl)c1 [Compound L, 2-(3,4-dichlorophenyl)-1-ethyl-4-oxo-6-[[3-(trifluoromethyl)pyrazol-1-yl]methyl]pyridine-3-carboxylic acid]
- % Inhibition relative to DMSO treatment [3]: 0%

Source: patent US20260226493A1, “HERBICIDE RESISTANT PLANTS” (SYNGENTA CROP PROTECTION AG, priority 2023, published 2026)
